Measurements taken from patent publication US20260083864A1, “CONTRAST AGENTS FOR USE IN DIAGNOSTIC COMPUTED TOMOGRAPHY IMAGING” (Bayer Aktiengesellschaft, priority 2022, published 2026).

Key:
[1] = system: freshly isolated rat hepatocytes; assay: Uptake into freshly isolated rat hepatocytes; details: for Uptake rat hepatocytes: 100 μmol Gd/L, 10 min, 37° C., relative to RC1 (Gd-EOB-DTPA); for Inhibition Rifampicine: rat hepatocyte uptake, test item and Rifampicine 1:1, each 100 μM
[2] = Partition coefficient (log P butanol/buffer); format: physicochemical; details: 1-butanol / 50 mM Tris-HCl, pH 7.4, room temperature
OATP1B1 = biological target: T1, OATP1B1 (Homo sapiens, UniProt Q9Y6L6); assay: Uptake into stable transfected OATP1B1 HEK 293 cells; format: cell-based; details: for Inhibition Rifampicine: uptake into OATP1B1-HEK 293 cells; for Uptake into OATP1B1-HEK 293 cells: 40 min incubation, relative to RC1 (Gd-EOB-DTPA)
T1 sequence (Q9Y6L6 1-691): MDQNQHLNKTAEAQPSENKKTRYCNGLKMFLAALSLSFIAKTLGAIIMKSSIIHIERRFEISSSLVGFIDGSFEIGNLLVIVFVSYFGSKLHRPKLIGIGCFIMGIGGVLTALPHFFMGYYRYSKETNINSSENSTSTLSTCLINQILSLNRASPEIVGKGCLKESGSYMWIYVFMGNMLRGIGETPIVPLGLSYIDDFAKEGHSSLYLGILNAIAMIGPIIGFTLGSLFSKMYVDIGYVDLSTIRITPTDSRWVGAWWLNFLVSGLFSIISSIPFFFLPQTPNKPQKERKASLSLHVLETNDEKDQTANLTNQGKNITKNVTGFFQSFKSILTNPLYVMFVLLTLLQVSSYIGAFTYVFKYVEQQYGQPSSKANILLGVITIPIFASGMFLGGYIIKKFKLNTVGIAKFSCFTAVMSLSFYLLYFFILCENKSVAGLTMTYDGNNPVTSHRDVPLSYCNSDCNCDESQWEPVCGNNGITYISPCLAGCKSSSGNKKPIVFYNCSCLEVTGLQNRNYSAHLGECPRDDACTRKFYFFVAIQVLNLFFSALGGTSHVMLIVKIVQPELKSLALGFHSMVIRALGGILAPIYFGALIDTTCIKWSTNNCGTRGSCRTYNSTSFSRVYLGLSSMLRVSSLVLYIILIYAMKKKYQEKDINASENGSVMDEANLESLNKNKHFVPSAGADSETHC
Summary of the method: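 Stably transfected OATP1B1 HEK293 cells incubated 40 min without shaking with test item at 100 µM final in transport buffer, in triplicate. Cells then washed with cold PBS; gadoxetate run on the same plate as reference.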

[3] = Water solubility in aqueous buffer; details: aqueous buffer 10 mM Tris-HCl, pH 7.4, 20° C.
Protocol: The solid compounds were added stepwise to the buffer solution. More substance is added once all the suspended material is dissolved until an equilibrium between undissolved and dissolved substance is reached. The suspension was mixed using a shaker (Heidolph Reax 2000) and treated 5 min in an ultrasound bath (Bandelin, Sonorex Super RK255H).

[4] = Relaxivity measurements at 1.41 T in water; format: physicochemical; details: 37° C., normalized to Gd
Summary of the method: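 T1 by inversion recovery and T2 by CPMG at 1.41 T (60 MHz), 37° C, relaxation delay ≥5×T1. Three Gd concentrations between 0.05 and 2 mM; relaxivities derived from measured relaxation rates in water.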

[5] = Relaxivity measurements at 1.41 T in human plasma; format: physicochemical; details: 37° C., normalized to Gd
Summary of the method: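 T1 determined by inversion recovery (8 inversion-time steps) and T2 by CPMG sequence, both with relaxation delay ≥5×T1. Each relaxivity used three Gd concentrations between 0.05 and 2 mM. Relaxivities were derived from relaxation rates measured in water and plasma.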

OATP1B3 = biological target: T2, OATP1B3 (Homo sapiens, UniProt Q9NPD5); assay: Uptake into stable transfected OATP1B3 HEK 293 cells; format: cell-based; details: for Inhibition Rifampicine: uptake into OATP1B3-HEK 293 cells; for Uptake into OATP1B3-HEK 293 cells: 40 min incubation, relative to RC1 (Gd-EOB-DTPA)
T2 sequence (Q9NPD5 1-702): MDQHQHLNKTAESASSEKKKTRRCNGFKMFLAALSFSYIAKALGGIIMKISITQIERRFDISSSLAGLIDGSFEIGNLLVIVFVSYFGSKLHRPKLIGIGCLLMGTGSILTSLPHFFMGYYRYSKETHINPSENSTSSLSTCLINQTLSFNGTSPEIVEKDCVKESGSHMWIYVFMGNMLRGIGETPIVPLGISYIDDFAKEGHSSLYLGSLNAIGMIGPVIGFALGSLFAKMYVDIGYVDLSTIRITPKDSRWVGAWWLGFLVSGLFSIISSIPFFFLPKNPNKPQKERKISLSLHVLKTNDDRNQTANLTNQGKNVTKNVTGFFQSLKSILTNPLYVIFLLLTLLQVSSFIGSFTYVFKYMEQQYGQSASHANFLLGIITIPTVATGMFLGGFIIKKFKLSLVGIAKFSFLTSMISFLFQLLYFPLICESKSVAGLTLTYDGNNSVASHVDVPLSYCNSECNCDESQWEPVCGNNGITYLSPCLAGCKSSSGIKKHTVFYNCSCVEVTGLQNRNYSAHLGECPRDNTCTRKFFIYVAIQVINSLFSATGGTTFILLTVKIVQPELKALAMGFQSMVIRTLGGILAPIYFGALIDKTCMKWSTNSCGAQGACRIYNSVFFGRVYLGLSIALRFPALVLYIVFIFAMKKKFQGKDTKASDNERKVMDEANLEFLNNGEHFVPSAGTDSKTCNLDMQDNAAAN
Summary of the method: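 HEK 293 cells stably transfected with human OATP1B3 were incubated for 40 min with test items at 100 μM final in transport buffer, in triplicate, then washed with cold PBS. Gadoxetate (Gd-EOB-DTPA) served as the reference standard on the same plate.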

SMILES | Uptake rat hepatocytes [1] | Inhibition Rifampicine [1] | Log P (partition coefficient butanol/buffer) [2] | Inhibition Rifampicine (OATP1B1) | Solubility [3] | r1 water [4] | r1 human plasma [5] | Inhibition Rifampicine (OATP1B3) | Uptake into OATP1B1-HEK 293 cells (OATP1B1) | Uptake into OATP1B3-HEK 293 cells (OATP1B3)
CCOCCOCCOc1ccc(CCC[C@@H](C(=O)O)N2CCN([C@H](CO)C(=O)[O-])CCN([C@H](CO)C(=O)[O-])CCN([C@H](CO)C(=O)[O-])CC2)cc1.[Gd+3] [Example 20, gadolinium (2R,2′R,2″R)-2,2′,2″-{10-[(1S)-1-carboxy-4-{4-[2-(2-ethoxyethoxy)ethoxy]phenyl}butyl]-1,4,7,10-tetraazacyclododecane-1,4,7-triyl}tris(3-hydroxypropanoate)] | 71 % of RC1 | 91 % inhibition | −1.11 | 87 % inhibition | >381 mM | 5.6 L/mmol/s | 9.8 L/mmol/s | 99 % inhibition |  | 
CCOCCOCCOc1ccc(CC(C(=O)O)N2CCN(CC(=O)[O-])CCN(CC(=O)[O-])CCN(CC(=O)[O-])CC2)nc1.[Gd+3] (stereo not shown) [Example 23, gadolinium 2,2′,2″-{10-[1-carboxy-2-{5-[2-(2-ethoxyethoxy)ethoxy]pyridin-2-yl}ethyl]-1,4,7,10-tetraazacyclododecane-1,4,7-triyl}triacetate] | 17 % of RC1 | 73 % inhibition | −1.94 | 0 % inhibition | >241 mM | 4.5 L/mmol/s | 6.0 L/mmol/s | 71 % inhibition |  | 
CCCOc1ccc(CCC(C(=O)O)N2CCN(CC(=O)[O-])CCN(CC(=O)[O-])CCN(CC(=O)[O-])CC2)cc1.[Gd+3] (stereo not shown) [Example 24, gadolinium 2,2′,2″-{10-[1-carboxy-3-(4-propoxyphenyl)propyl]-1,4,7,10-tetraazacyclododecane-1,4,7-triyl}triacetate] | 40 % of RC1 | 96 % inhibition | −0.71 | 87 % inhibition | >261 mM | 4.1 L/mmol/s | 8.8 L/mmol/s | 94 % inhibition | 229 % of RC1 | 17 % of RC1
CCCC(C(=O)[O-])N1CCN(CC(=O)[O-])CCN(C(Cc2ccc(OCC)cc2)C(=O)O)CCN(CC(=O)[O-])CC1.[Gd+3] (stereo not shown) [Example 29, gadolinium 2-{7-[1-carboxy-2-(4-ethoxyphenyl)ethyl]-4,10-bis(carboxylatomethyl)-1,4,7,10-tetraazacyclododecan-1-yl}pentanoate] | 87 % of RC1 | 99 % inhibition | −0.53 | 96 % inhibition | >305 mM | 4.4 L/mmol/s | 7.5 L/mmol/s | 99 % inhibition | 493 % of RC1 | 75 % of RC1
CCCC(C(=O)[O-])N1CCN(CC(=O)[O-])CCN(C(Cc2ccc(OCC)cc2)C(=O)O)CCN(CC(=O)[O-])CC1.[Gd+3] (stereo not shown) [Example 30, gadolinium 2-{7-[1-carboxy-2-(4-ethoxyphenyl)ethyl]-4,10-bis(carboxylatomethyl)-1,4,7,10-tetraazacyclododecan-1-yl}pentanoate] | 75 % of RC1 | 99 % inhibition | −0.60 | 90 % inhibition | >35 mM | 4.7 L/mmol/s | 7.6 L/mmol/s | 98 % inhibition | 169 % of RC1 | 62 % of RC1
CCOCCOc1ccc(CC(C(=O)O)N2CCN(CC(=O)[O-])CCN(CC(=O)[O-])CCN(CC(=O)[O-])CC2)cc1.[Gd+3] (stereo not shown) [Example 32, gadolinium 2,2′,2″-(10-{1-carboxy-2-[4-(2-ethoxyethoxy)phenyl]ethyl}-1,4,7,10-tetraazacyclododecane-1,4,7-triyl)triacetate] | 54 % of RC1 | 93 % inhibition | −1.53 | 72 % inhibition | >198 mM | 4.1 L/mmol/s | 6.6 L/mmol/s | 94 % inhibition | 147 % of RC1 | 22 % of RC1
CCOCCOCCOc1cc(CC(C(=O)O)N2CCN(CC(=O)[O-])CCN(CC(=O)[O-])CCN(CC(=O)[O-])CC2)cc(OCCOCCOCC)c1.[Gd+3] (stereo not shown) [Example 39, gadolinium 2,2′,2″-{10-[2-{3,5-bis[2-(2-ethoxyethoxy)ethoxy]phenyl}-1-carboxyethyl]-1,4,7,10-tetraazacyclododecane-1,4,7-triyl}triacetate] | 17 % of RC1 | 64 % inhibition | −1.32 | 12 % inhibition | >255 mM | 4.8 L/mmol/s | 7.8 L/mmol/s | 88 % inhibition | 59 % of RC1 | 26 % of RC1
CCOCCOCCOc1ccc(CC(C(=O)O)N2CCN(CC(=O)[O-])CCN(C(CO)C(=O)[O-])CCN(CC(=O)[O-])CC2)cc1.[Gd+3] (stereo not shown) [Example 41, gadolinium-2-{7-[1-carboxy-2-{4-[2-(2-ethoxyethoxy)ethoxy]phenyl}ethyl]-4,10-bis(carboxylatomethyl)-1,4,7,10-tetraazacyclododecan-1-yl}-3-hydroxypropanoate] | 52 % of RC1 | 56 % inhibition | −1.61 | 30 % inhibition | >13 mM | 4.5 L/mmol/s | 5.7 L/mmol/s | 74 % inhibition | 218 % of RC1 | 47 % of RC1
